Tests used:
[1] = target: T1, PIP 5-K (Mus musculus, UniProt P70181); test: Localisation of GFP PIP 5-K in HeLa cells by confocal laser scanning microscopy; assay type: cell-based; conditions: 600 microMolar, away from the plasma membrane
T1 construct: expressed in transfected cells; host or cells: HeLa cells
Procedure: Panel A: HeLa cell were transiently transfected with expression plasmids encoding for a GFP fusion protein of PIP 5-K. In healthy cells GFP PIP 5-K is located at the plasma membrane. Cells were then treated with 600 microMolar H2O2 and the localisation of the GFP PIP 5-K was monitored on line using confocal laser scanning microscopy.
HeLa cells were transiently transfected with expression plasmids encoding for a GFP fusion protein of PIP 5-K. In healthy cells GFP PIP 5-K is located at the plasma membrane. Cells were then treated with 600 microMolar H2O2 and the localisation of the GFP PIP 5-K was monitored on line using confocal laser scanning microscopy. […] H2O2 regulates the localisation of the enzyme in vivo. (FIG. 12, panel A)

[2] = tested on: HeLa cells; test: Apoptosis of HeLa cells by nuclear morphology; assay type: cell-based; conditions: 600 microMolar, 24 hours
Procedure: HeLa cell were transiently transfected with expression plasmids encoding for the listed proteins. Cell were then treated with 600 microMolar H2O2 for 24 hours. All cells were collected and examined for apoptosis (Example 5).
The inventors have shown that type I PIP kinase protects cells from ROS induced apoptosis. HeLa cells were transiently transfected with expression plasmids encoding for the listed proteins. Cells were then treated with 600 microMolar H2O2 for 24 hours. All cells were collected and examined for apoptosis. Apoptosis was determined by examining nuclear morphology of green cells (GFP Histone) after staining with a nuclear stain. Cells with fragmented nuclei were scored positive for apoptosis. […] Ectopic expression of PIP 5-K protects HeLa cells from apoptosis after H2O2 treatment. Results are in FIG. 11.

[3] = tested on: PtdIns(4,5)P2 in HeLa cells; test: PtdIns(4,5)P2 levels visualised with GFP-PH domain of PLCdelta1 probe in HeLa cells; assay type: cell-based; conditions: 600 microMolar H2O2, no recovery hours after stimulation
Excerpt: Changes in intracellular PtdIns(4,5)P2 levels following stimulation with neurokinin A were visualised in real time using a fusion protein of GFP and the PH domain of PLCdelta1 as a probe. GFP PLC delta 1 is a highly specific in vivo probe for PIP2 in cells.
HeLa cells were transiently transfected with an expression plasmid encoding a fusion protein of GFP and the PH domain of PLCdelta1.
HeLa cells were transiently transfected with an expression plasmid encoding a fusion protein of GFP and the pleckstrin homology domain of PLCdelta1. GFP PLC delta1 is a highly specific in vivo probe for PtdIns(4,5)P2 in cells. Results are in FIG. 10.

[4] = tested on: ING2; test: Western blot of endogenous ING2 associated with the CEF of MEL cells; assay type: cell-based, Murine; conditions: differentiated MEL cells; H2O2 500 μM, 15 minutes
Procedure: FIG. 4. A) Exponentially growing MEL cells were irradiated with either 200 J/m of UV light or 10 Gy of gamma radiation. After 30 minutes the CEF was isolated and the subjected to SDS-PAGE followed by transfer of the separated proteins to a nitrocellulose membrane. Western blotting for endogenous ING2 and histone 4 proteins was performed. Representative western blots are shown. B) Exponentially growing MEL cells were incubated in the absence or presence of N-acetyl cysteine (NAC) (5 mM) for 4 hours prior to a control irradiation or exposed to 200 J/m of UV light before the isolation of the CEF. Differentiated MEL cells were incubated in the absence or presence of H2O2 (500 μM) for 15 minutes prior to the isolation of the CEF. Proteins in the CEF were subjected to SDS-PAGE followed by transfer to a nitrocellulose membrane. Western blotting for endogenous ING2 and histone 4 proteins was performed. Representative western blots are shown. C) MEL cells were preincubated with either vehicle, wortmannin (200 nM and 5 μM) or curcumin (100 μM) were irradiated with 200 J/m of UV light. After 30 minutes the CEF was isolated and proteins were subjected to SDS-PAGE followed by transfer to a nitrocellulose membrane. Western blotting for endogenous ING2 and histone 4 proteins was performed. Representative western blots are shown. D) The CEF from transiently transfected MEL cells with either pSuper or pSuper-IIβRNAi was prepared. Proteins in the CEF were subjected to SDS-PAGE followed by transfer to a nitrocellulose membrane. […] Proteins were analysed by standard western blotting procedures employing the following antibodies: anti-tubulin and anti-flag (both from Sigma), anti-actin (Chemicon International), anti-histone 4 (Upstate Biotechnology), anti-phospho p54, anti-phospho p46, anti-phospho p38, total p54, total p46 and total p38 (all from Cell Signalling Technology) anti-ING2, anti EGFP (Clontech), anti-type II β PIP kinase, anti-GST and anti-myc (both generated in house).

[5] = target: T1, PIP 5-K; test: In vitro activity of recombinant PIP 5-K (radioactive ATP, TLC); assay type: biochemical; conditions: apoptotic concentrations of H2O2; Cysteine 175 to serine mutant is not sensitive
Procedure: (§1) Panel B: Recombinant wild type PIP 5-K and a point mutation of PIP 5-K—(cysteine 175 altered to a serine residue) were both treated with H2O2 and enzyme activity was assayed in vitro by measuring the amount of product that is produced after incubation with substrate and radioactive ATP. The products were then analysed on TLC plate using phosphoimager.
as §1, with “Recombinant” for “Panel B: Recombinant”, “5-K-(cysteine” for “5-K—(cysteine”, “phosphoimager. […] (FIG. 12, panel B).” for “phosphoimager.”

T1 sequence (P70181 whole entry): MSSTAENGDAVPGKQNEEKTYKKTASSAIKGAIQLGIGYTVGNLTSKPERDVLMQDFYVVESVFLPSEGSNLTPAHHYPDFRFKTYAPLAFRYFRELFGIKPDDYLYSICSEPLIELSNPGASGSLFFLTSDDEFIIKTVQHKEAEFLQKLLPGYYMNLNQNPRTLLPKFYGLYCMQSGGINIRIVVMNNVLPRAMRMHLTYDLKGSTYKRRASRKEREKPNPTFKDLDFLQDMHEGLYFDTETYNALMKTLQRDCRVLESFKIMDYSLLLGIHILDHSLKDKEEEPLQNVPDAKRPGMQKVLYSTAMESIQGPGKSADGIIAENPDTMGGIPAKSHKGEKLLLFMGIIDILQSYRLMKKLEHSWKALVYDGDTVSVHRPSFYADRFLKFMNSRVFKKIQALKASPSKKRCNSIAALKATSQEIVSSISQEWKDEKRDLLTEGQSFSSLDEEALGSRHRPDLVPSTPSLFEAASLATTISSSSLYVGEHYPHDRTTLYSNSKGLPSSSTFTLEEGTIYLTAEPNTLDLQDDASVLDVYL

In the case of `OO` [H2O2], the “localisation of GFP PIP 5-K” value [1] is reported as “induces translocation”, the “apoptosis (fragmented nuclei)” value [2] is reported as “induces apoptosis” and the “PtdIns(4,5)P2 levels (GFP-PH probe at plasma membrane)” value [3] is reported as “sustained depletion”. The “ING2 translocation to the CEF” value [4] was “stimulated” and the “activity of recombinant wild type PIP 5-K after treatment” value [5] was “sensitive”.

— US20100092456A1, “METHODS OF TREATMENT” (priority 2006, published 2010)
